Laboratory results as given in PMC3425833, “Synthesis, Urease Inhibition, Antioxidant, Antibacterial, and Molecular Docking Studies of 1,3,4-Oxadiazole Derivatives” (ISRN Pharmacology, 2012).
Converted amounts (≈) assume the structure as drawn. “Also recorded” adds a separate entry of the source. Like-named read-outs stand apart in the source and are kept apart here.

Assays:
[1] = DPPH radical scavenging (antioxidant) assay; conditions: for IC50: DPPH 300 μM, half an hour at 37°C; for DPPH radical scavenging activity compared to standard propyl gallate: in words
Experimental: The free radical scavenging capacity of the compounds was measured by 1,1-diphenyl-2-picrylhydrazyl. Test compounds were allowed to react with stable free radical, 1,1-diphenyl-2-picrylhydrazyl radical (DPPH) for half an hour at 37°C. The concentration of DPPH was kept as 300 μM. The test samples were dissolved in DMSO while the DPPH solution was prepared in ethanol. After incubation, decrease in absorption was measured at 515 nm using microplate reader. Percent radical scavenging activity of samples was determined in comparison with a DMSO treated as control. Propyl gallate and 3-tert-Butyl-4-hydroxyanisole were used as standards.

Jack bean urease = Jack bean urease (Canavalia ensiformis, UniProt P07374); assay: biochemical; type: biochemical
Bacillus subtilis = assay: Antibacterial activity, serial tube dilution MIC; type: cell-based; conditions: for MIC: Bacillus subtilis, read-out: MIC B. subtilus
Experimental: (§1) The antibacterial activity data is represented in Table 2. […] Ciprofloxacin was used as standard drug. The compounds were found active against bacterial strains (2 Gram positive bacteria, namely, Staphylococcus aureus, Bacillus subtilis, and 2 Gram negative bacteria namely Escherichia coli, Shigella flexneri) in variable concentration. The antibacterial activities of 1,3,4-oxadiazole derivatives were evaluated in vitro by serial tube dilution method. The compounds and standard drug ciprofloxacin were dissolved in N,N-dimethylformamide (DMF) to give a concentration of 5 μg/mL (stock solution). Necessary apparatus and test tubes set of capacity 5 mL was washed cleaned and completely dried. For the bacterial culture double strength nutrient broth was used. The culture media was made by dissolving 15 g of nutrient broth in 1 L of distilled water. Approximately, 1 mL of culture media was prepared and transferred to each test tube by micropipette and capped with non-adsorbent cotton plugs. The test tubes containing 1 mL culture media was sterilized in an autoclave at 121°C for 20 min at 15 psi pressure. Sub-culturing of bacteria was done by transferring a loopful of particular bacterial strain from standard bacterial agar to 10 mL sterilized nutrient broth aseptically in a laminar air flow cabinet. It was then incubated for a period of 24 h at 37°C in a B. O. D. incubator. Bacterial strain suspension was prepared, after 24 h incubation, by aseptically inoculating 0.2 mL of revived bacterial colony into 100 mL of 0.9% m/v saline. A series of 5 assay tubes for a single derivative against each bacterial strain was employed. A stock solution of each test derivative at concentration 5 μg/mL (containing 1 mL nutrient broth) was serially diluted to achieve concentrations of 2.5, 1.25, 0.625, 0.313, and 0.156 μg/mL. Then, 0.1 mL of normal saline suspension of revived bacteria was added to each test tube. The inoculated tubes were incubated at 37°C for 24 h. The MIC (minimum inhibitory concentration) values were determined by subsequently checking for the absence of visual turbidity.

Escherichia coli = assay: Antibacterial activity, serial tube dilution MIC; type: cell-based; conditions: for MIC: Escherichia coli, 24 h, read-out: MIC E. coli; for Antibacterial activity against E. coli compared to standard ciprofloxacin: in words
Experimental: as §1

Staphylococcus aureus = assay: Antibacterial activity, serial tube dilution MIC; type: cell-based; conditions: for MIC: Staphylococcus aureus, read-out: MIC S. aureus; for Antibacterial activity against S. aureus compared to standard ciprofloxacin: in words
Experimental: as §1

Shigella flexneri = assay: Antibacterial activity, serial tube dilution MIC; type: cell-based; conditions: for MIC: Shigella flexneri, average of three readings, 24 h at 37°C, read-out: MIC S. flexneri; for Antibacterial activity against S. flexneri compared to standard ciprofloxacin: in words
Experimental: as §1

[2] = average of three readings, 24 h at 37°C

Jack bean urease, sequence (P07374 whole entry, looked up): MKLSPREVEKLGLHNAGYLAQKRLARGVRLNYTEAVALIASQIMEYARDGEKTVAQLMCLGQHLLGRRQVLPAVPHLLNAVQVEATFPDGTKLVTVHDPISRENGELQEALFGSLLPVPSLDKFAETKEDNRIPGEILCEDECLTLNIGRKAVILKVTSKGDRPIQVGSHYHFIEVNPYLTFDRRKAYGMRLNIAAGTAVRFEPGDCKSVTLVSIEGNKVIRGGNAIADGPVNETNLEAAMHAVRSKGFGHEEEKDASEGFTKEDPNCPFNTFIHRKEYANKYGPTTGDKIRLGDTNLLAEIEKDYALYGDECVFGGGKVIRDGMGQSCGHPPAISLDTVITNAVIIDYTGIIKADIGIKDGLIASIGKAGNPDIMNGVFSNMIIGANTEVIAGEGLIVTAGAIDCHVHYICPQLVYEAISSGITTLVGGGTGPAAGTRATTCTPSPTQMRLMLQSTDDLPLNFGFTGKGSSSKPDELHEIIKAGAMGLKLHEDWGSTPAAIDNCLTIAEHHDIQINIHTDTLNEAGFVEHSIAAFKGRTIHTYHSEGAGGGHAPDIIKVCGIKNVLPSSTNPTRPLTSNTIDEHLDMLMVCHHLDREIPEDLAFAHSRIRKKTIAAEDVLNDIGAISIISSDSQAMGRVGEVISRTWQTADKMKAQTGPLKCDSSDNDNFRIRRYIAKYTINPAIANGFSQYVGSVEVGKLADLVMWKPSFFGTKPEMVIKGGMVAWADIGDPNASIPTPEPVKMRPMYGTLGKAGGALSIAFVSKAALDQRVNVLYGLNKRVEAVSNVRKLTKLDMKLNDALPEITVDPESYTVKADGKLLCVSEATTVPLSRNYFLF

COc1ccccc1CCc1n[nH]c(=S)o1 [Compound 4i, 5-(2-Methoxyphenethyl)-1,3,4-oxadiazole-2(3H)-thione]
IC50 [1]: 40.2 ± 3.3 µM | DPPH radical scavenging activity compared to standard propyl gallate [1]: Equipotent | IC50 (Jack bean urease): 6.22 ± 0.4 µM | MIC (Bacillus subtilis; [2]): 0.625 µg/mL (≈ 2.64 µM) | MIC (Escherichia coli; [2]): 0.156 µg/mL (≈ 0.66 µM) | Antibacterial activity against E. coli compared to standard ciprofloxacin (Escherichia coli): equipotent | MIC (Staphylococcus aureus; 24 h): 0.313 µg/mL (≈ 1.32 µM) | MIC (Shigella flexneri): 0.313 µg/mL (≈ 1.32 µM) | Antibacterial activity against S. flexneri compared to standard ciprofloxacin (Shigella flexneri): equipotent activity

S=c1[nH]nc(Cc2ccc(Cl)cc2)o1 [Compound 4j, 5-(4-Chlorobenzyl)-1,3,4-oxadiazole-2(3H)-thione]
IC50 [1]: 51.6 ± 2.1 µM | IC50 (Jack bean urease): 1.15 ± 0.2 µM | Urease inhibitory activity relative to the standard (thiourea) (Jack bean urease; more active than the standard): 20 fold | MIC (Bacillus subtilis; [2]): 1.25 µg/mL (≈ 5.51 µM) | MIC (Escherichia coli; [2]): 0.313 µg/mL (≈ 1.38 µM) | MIC (Staphylococcus aureus; [2]): 0.313 µg/mL (≈ 1.38 µM) | MIC (Shigella flexneri): 0.156 µg/mL (≈ 0.688 µM) | Antibacterial activity against S. flexneri compared to standard ciprofloxacin (Shigella flexneri): two-fold activities

S=c1[nH]nc(Cc2ccccc2Cl)o1 [Compound 4k, 5-(2-Chlorobenzyl)-1,3,4-oxadiazole-2(3H)-thione]
IC50 [1]: 34.4 ± 3.2 µM | DPPH radical scavenging activity compared to standard propyl gallate [1]: more effective | IC50 (Jack bean urease): 12.9 ± 0.6 µM | MIC (Bacillus subtilis; [2]): 0.313 µg/mL (≈ 1.38 µM) | MIC (Escherichia coli): 0.156 µg/mL (≈ 0.688 µM) | Antibacterial activity against E. coli compared to standard ciprofloxacin (Escherichia coli): equipotent | MIC (Staphylococcus aureus; 24 h): 0.156 µg/mL (≈ 0.688 µM) | Antibacterial activity against S. aureus compared to standard ciprofloxacin (Staphylococcus aureus): equipotent activity | MIC (Shigella flexneri): 0.156 µg/mL (≈ 0.688 µM) | Antibacterial activity against S. flexneri compared to standard ciprofloxacin (Shigella flexneri): two-fold activities

COc1ccc(Cc2n[nH]c(=S)o2)cc1 [Compound 4l, 5-(4-Methoxybenzyl)-1,3,4-oxadiazole-2(3H)-thione]
IC50 [1]: 88.2 ± 4.1 µM | IC50 (Jack bean urease): 5.83 ± 0.08 µM | MIC (Bacillus subtilis; [2]): 2.5 µg/mL (≈ 11.2 µM) | MIC (Escherichia coli; [2]): 0.313 µg/mL (≈ 1.41 µM) | MIC (Staphylococcus aureus; [2]): 0.625 µg/mL (≈ 2.81 µM) | MIC (Shigella flexneri): 0.156 µg/mL (≈ 0.702 µM) | Antibacterial activity against S. flexneri compared to standard ciprofloxacin (Shigella flexneri): two-fold activities

COc1ccccc1Cc1n[nH]c(=S)o1 [Compound 4m, 5-(2-Methoxybenzyl)-1,3,4-oxadiazole-2(3H)-thione]
IC50 [1]: 42.7 ± 3.7 µM | IC50 (Jack bean urease): 5.6 ± 0.6 µM | Antibacterial activity against B. subtilus relative to ciprofloxacin (Bacillus subtilis): 4 fold | MIC (Bacillus subtilis; [2]): 0.156 µg/mL (≈ 0.702 µM) | MIC (Escherichia coli; [2]): 0.625 µg/mL (≈ 2.81 µM) | MIC (Staphylococcus aureus; [2]): 1.25 µg/mL (≈ 5.62 µM) | MIC (Shigella flexneri): 0.313 µg/mL (≈ 1.41 µM) | Antibacterial activity against S. flexneri compared to standard ciprofloxacin (Shigella flexneri): equipotent activity

COc1cccc(Cc2n[nH]c(=S)o2)c1 [Compound 4n, 5-(3-Methoxybenzyl)-1,3,4-oxadiazole-2(3H)-thione]
IC50 [1]: 60.3 ± 4.3 µM | IC50 (Jack bean urease): 12.2 ± 0.05 µM | Antibacterial activity against B. subtilus relative to ciprofloxacin (Bacillus subtilis): 4 fold | MIC (Bacillus subtilis; 24 h): 0.156 µg/mL (≈ 0.702 µM) | MIC (Escherichia coli; [2]): 0.625 µg/mL (≈ 2.81 µM) | MIC (Staphylococcus aureus; 24 h): 0.156 µg/mL (≈ 0.702 µM) | Antibacterial activity against S. aureus compared to standard ciprofloxacin (Staphylococcus aureus): equipotent activity | MIC (Shigella flexneri): 0.156 µg/mL (≈ 0.702 µM) | Antibacterial activity against S. flexneri compared to standard ciprofloxacin (Shigella flexneri): two-fold activities

COc1cccc(CCc2n[nH]c(=S)o2)c1 [Compound 4o, 5-(3-Methoxyphenethyl)-1,3,4-oxadiazole-2(3H)-thione]
IC50 [1]: 43.6 ± 3.1 µM | IC50 (Jack bean urease): 15.1 ± 0.8 µM | MIC (Bacillus subtilis; [2]): 0.625 µg/mL (≈ 2.64 µM) | MIC (Escherichia coli; [2]): 0.313 µg/mL (≈ 1.32 µM) | MIC (Staphylococcus aureus; [2]): 2.5 µg/mL (≈ 10.6 µM) | MIC (Shigella flexneri): 0.156 µg/mL (≈ 0.66 µM) | Antibacterial activity against S. flexneri compared to standard ciprofloxacin (Shigella flexneri): two-fold activities

Fc1cc(Cl)ccc1-c1n[nH]c(=S)o1 [Compound 4r, 5-(4-Chloro-2-fluorophenyl)-1,3,4-oxadiazole-2(3H)-thione]
IC50 [1]: 10.8 ± 0.2 µM | DPPH radical scavenging activity compared to standard propyl gallate [1]: four-fold | Urease inhibitory activity in words (Jack bean urease; qualitative statement): weak inhibitory activities | inhibition at 100 µM (Jack bean urease; read-out: % inhibition of Jack bean urease): 39% | MIC (Bacillus subtilis; 24 h): 0.313 µg/mL (≈ 1.36 µM) | Antibacterial activity against E. coli compared to standard ciprofloxacin (Escherichia coli): equipotent; also recorded: considerably less active | MIC (Staphylococcus aureus; [2]): 0.156 µg/mL (≈ 0.676 µM) | Antibacterial activity against S. aureus compared to standard ciprofloxacin (Staphylococcus aureus): equipotent activity | MIC (Shigella flexneri): 0.313 µg/mL (≈ 1.36 µM) | Antibacterial activity against S. flexneri compared to standard ciprofloxacin (Shigella flexneri): equipotent activity

CCCOC(=O)c1cc(O)c(O)c(O)c1 [Propyl gallate, reference compound]
IC50 [1]: 40.8 ± 1.2 µM

NC(N)=S [Thiourea, reference compound]
IC50 (Jack bean urease; triplicate, thiourea standard, read-out: IC50 ± SEM, inhibitory activity against Jack bean urease): 22.3 ± 1.2 µM
